Data taken from patent US7521232B2, “Emissive species for clinical imaging” (ICx Nomadics, Inc., priority 2006, dated 2009).

Assay: Solubility of isolated product in solvents
Format: physicochemical

Solubility in DMF (DMF)	Solubility in acetone (acetone)	Solubility in hexanes (hexanes)	Solubility in water (water)	Structure (SMILES)
soluble	soluble			Cc1ccc(S(=O)(=O)OCCOCCOc2cc(I)c(OCCOCCOS(=O)(=O)c3ccc(C)cc3)cc2I)cc1
		Not very soluble	Not very soluble	OCCOCCOc1cc(I)c(OCCOCCO)cc1I
